Laboratory results from patent US20080131511A1, “Pharmaceutical Composition for Treatment of Tear and Salivary Fluid Drying” (Astellas Pharma, Inc., priority 2004, published 2008).

Experiments:
Type in all cases: in vivo, mouse (male Balb/c)
sweat gland = experiment: Sweating (number of activated sweat glands on footpad) after subcutaneous bolus administration; conditions: for sweating: 10 minutes after administration
Method: (§1) Male Balb/c mice were used in the test.
The compound A was dissolved in physiological saline to a concentration of 1, 3, 10, 30 or 100 mg/5 ml, and 5 ml/kg of the drug solution was administered under the dorsal skin. Secreted amounts of salivary and tear fluid were measured just before the administration of compound A and 10, 20, 30, 40 and 50 minutes after the administration. The sweating action was measured 10 minutes after the administration. Also, the growth acceleration action was measured 6 hours after the administration.
Pilocarpine was dissolved in physiological saline to a concentration of 0.03, 0.1, 0.3, 1, 3 or 10 mg/5 ml, or cevimeline to a concentration of 0.3, 1, 3, 10, 30 or 100 mg/5 ml, and 5 ml/kg of the drug solution was administered under the dorsal skin. Secreted amounts of salivary and tear fluid were measured just before the administration of pilocarpine or cevimeline and 10, 20, 30, 40 and 50 minutes after the administration. The sweating action was measured 10 minutes after the administration. Also, the growth acceleration action was measured 6 hours after the administration.
The footpad of right hind paw of a mouse anesthetized with diethyl ether was wiped with absorbent cotton, and then 20 μl of each of 5 mg/ml iodine-ethanol solution and 50 mg/ml starch-mineral oil suspension was applied thereto. The number of black spots on footpad was counted and used as the number of activated sweat glands. In the case of the subcutaneous bolus administration test, the number of activated sweat glands 10 minutes after the administration of compound A was measured. In the case of the subcutaneous continuous administration, area under the number of activated sweat glands-versus-time curve (AUC) was calculated.
(§2) All of the test results were expressed as fold increases of the reactions of the drug-administered group versus those of the vehicle-administered group, and comparison between the drug-administered groups and the vehicle-administered group was carried out using Dunnett's t-test. P<0.05 was considered significant. Results

[1] = tested on: ornithine decarboxylase (ODC) activity of parotid salivary gland; experiment: Ornithine decarboxylase activity of parotid salivary gland after subcutaneous bolus administration; conditions: mice, ODC activity 6 hours after administration
Method: (§3) Male Balb/c mice were used in the test. […] Also, the growth acceleration action was measured 6 hours after the administration. […] Also, the growth acceleration action was measured 6 hours after the administration. […] Thus, it can be easily analogized that the ODC activity becomes a useful index of cell growth and function of the exocrine gland. Accordingly, the ability of each drug to activate glandular tissue was evaluated by measuring ODC activity of parotid salivary gland and extra-orbital lacrimal gland. The amount of ^14CO2 formed from L-^14C-ornithine was used as the index of ODC activity. A mouse anesthetized with diethyl ether was sacrificed by bleeding, and left and right parotid salivary glands and extra-orbital lacrimal glands were isolated. After removing the attached connective tissue and fat, the isolated glandular tissues homogenized in 1.5 ml of a homogenate buffer (25 mM Tris-HCl buffer (pH 7.4) containing 0.1 mM ethylenediaminetetraacetic acid, 0.4 mM pyridoxal phosphate, 5 mM dithiothreitol and 0.1% Brij 35®) using a Potter type homogenizer and then centrifuged at 4° C., 15,000 g for 30 minutes, and the supernatant was used as the enzyme fraction. […] The ^14CO2 generated by the reaction was captured by 150 μl of 1 N NaOH soaked in a glass filter. Radioactivity of the ^14CO2 captured on the glass filter was detected using a liquid scintillation counter. The enzyme activity (pmol ^14CO2/mg protein/hour) was calculated from the measured results. All of the test results were expressed as fold increases of the reactions of the drug-administered group versus those of the vehicle-administered group, and comparison between the drug-administered groups and the vehicle-administered group was carried out using Dunnett's t-test. P<0.05 was considered significant. Results

salivary gland = experiment: Salivary fluid secretion during subcutaneous continuous administration (osmotic pump); conditions: mice; for Salivary fluid: AUC of secreted amount
Method: as §1
The compound A was dissolved in physiological saline to a concentration of 0.625, 1.25, 2.5, 5.0, 10 or 20 mg/200 μl, and filled each pump (Alzet mini-osmotic pump 2001D, 8 μl/h, 1 day; DURECT Corporation) with about 200 μl portions It means, that is, each pump releases at a rate of 0.025, 0.05, 0.1, 0.2, 0.4 or 0.8 mg compound A/h, respectively. About 5 mm of dorsal epidermis of a mouse anesthetized with diethyl ether was incised, the osmotic pump already filled with the compound A was subcutaneously implanted, and then the skin was stitched. Secreted amounts of salivary and tear fluid and sweating were periodically measured from just before the implantation of pump until 32 hours after the administration. The ornithine decarboxylase activity was measured 10 hours after the implantation.
Pilocarpine was dissolved in physiological saline to a concentration of 0.039, 0.078, 0.16 or 0.31 mg/200 μl, or cevimeline to a concentration of 0.16, 0.31, 0.63 or 1.3 mg/200 μl, and filled the osmotic pump (Alzet mini-osmotic pump 2001 D, 8 μl/h, 1 day; DURECT Corporation) with about 200 μl portions. It means, that is, each pump releases at a rate of 0.00156, 0.00312, 0.0064 or 0.0124 mg/h (pilocarpine) or 0.0064, 0.0124, 0.0252 or 0.05 mg/h (cevimeline). About 5 mm of dorsal epidermis of a mouse anesthetized with diethyl ether was incised, the osmotic pump already filled with pilocarpine or cevimeline was subcutaneously implanted, and then the skin was stitched. Secreted amounts of salivary and tear fluid and sweating were periodically measured from just before the implantation of pump until 32 hours after the administration. The ornithine decarboxylase activity was measured 10 hours after the implantation.
The mouth of a mouse was wiped with a cotton ball whose weight had been measured in advance, and the incremental weight was used as the amount of salivary fluid. Also at the same time, a thread for tear fluid measurement (Zone Quick; Menicon) used on the Schirmer test was inserted into the lower eyelid conjunctival sac, and the length of colored part was measured and used as the amount of tear fluid. From the measurement results, area under the secreted amount-versus-time curve (AUC) was calculated.
as §2

[2] = tested on: ornithine decarboxylase (ODC) activity of extra-orbital lacrimal gland; experiment: Ornithine decarboxylase activity of extra-orbital lacrimal gland after subcutaneous bolus administration; conditions: mice, ODC activity 6 hours after administration
Method: as §3

SMILES: C=C1CC2(CCN(C)CC2)O[C@H]1C [compound A, (−)-(S)-2,8-dimethyl-3-methylene-1-oxa-8-azaspiro[4.5]decane]
- dose at which a side effect was found (sweat gland; male, Balb/c, mouse, in vivo, 10 min): 30 mg/kg
- dose at which statistically significant sweating was found (sweat gland; mice, s.c. bolus): 30 mg/kg
- sweating dose relative to dose accelerating secretion of salivary and tear fluid (sweat gland; mice, s.c. bolus): 3 times
- sweating (sweat gland; mice, s.c. bolus 3 mg/kg): 0.69 ± 0.19 fold increase vs. the vehicle group
- sweating (sweat gland; mice, s.c. bolus 10 mg/kg): 1.3 ± 0.20 fold increase vs. the vehicle group
- sweating (sweat gland; mice, s.c. bolus 30 mg/kg): 2.0 ± 0.19 fold increase vs. the vehicle group
- sweating (sweat gland; mice, s.c. bolus 100 mg/kg): 2.2 ± 0.17 fold increase vs. the vehicle group
- dose at which a side effect was not found (sweat gland; mouse, bolus administration): 10 mg/kg
- Glandular cell growth Salivary gland ([1]; s.c. bolus 10 mg/kg): 0.71 ± 0.05 fold increase vs. the vehicle group
- Glandular cell growth Salivary gland ([1]; s.c. bolus 30 mg/kg): 0.72 ± 0.11 fold increase vs. the vehicle group
- Glandular cell growth Salivary gland ([1]; s.c. bolus 100 mg/kg): 2.8 ± 0.72 fold increase vs. the vehicle group
- dose at which salivary fluid secretion acceleration action reached maximum (salivary gland; s.c. continuous administration): 5 mg
- time after osmotic pump implantation at which secreted amount of tear and salivary fluid became maximum (salivary gland; s.c. continuous administration): 10 h
- time after osmotic pump implantation at which secreted amount of tear and salivary fluid started to increase (salivary gland; s.c. continuous administration): 4 h
- time after which secretion acceleration action almost disappeared (salivary gland; s.c. continuous administration): 32 h
- time until which increased secretion of tear and salivary fluid continued (salivary gland; s.c. continuous administration): 26 h
- dose showing statistically significant salivary fluid secretion acceleration (salivary gland; s.c. continuous administration, cumulative quantity vs vehicle group): ≥ 2.5 mg
- Salivary fluid (salivary gland; s.c. osmotic pump 0.63 mg (0.025 mg/h)): 0.84 ± 0.11 fold increase vs. the vehicle group
- Salivary fluid (salivary gland; s.c. osmotic pump 1.25 mg (0.05 mg/h)): 1.4 ± 0.11 fold increase vs. the vehicle group
- Salivary fluid (salivary gland; s.c. osmotic pump 2.5 mg (0.1 mg/h)): 2.1 ± 0.13 fold increase vs. the vehicle group
- Salivary fluid (salivary gland; s.c. osmotic pump 5 mg (0.2 mg/h)): 2.8 ± 0.21 fold increase vs. the vehicle group
- Salivary fluid (salivary gland; s.c. osmotic pump 10 mg (0.4 mg/h)): 3.4 ± 0.35 fold increase vs. the vehicle group
- Glandular cell growth Lacrimal gland ([2]; s.c. bolus 10 mg/kg): 0.99 ± 0.24 fold increase vs. the vehicle group
- Glandular cell growth Lacrimal gland ([2]; s.c. bolus 30 mg/kg): 2.2 ± 0.43 fold increase vs. the vehicle group
- Glandular cell growth Lacrimal gland ([2]; s.c. bolus 100 mg/kg): 2.3 ± 0.07 fold increase vs. the vehicle group
